US4988697A, “Fungicidal compositions and method” (Merck & Co., Inc., priority 1989, dated 1991)
Values after ≈ are worked out from the molar mass of the structure shown.

Experiments:
Type in all cases: cell-based
Candida albicans = assay: Synergistic and fungicidal effect on exponential phase cultures (CFU/ml over time); details: ketoconazole 1 μg/ml, alone or combined
Method: Synergistic and fungicidal effects were determined by treating exponential phase Candida albicans cultures with β-Lactone at MIC and MFC levels and ketoconazole at 0.1 μg/ml or a 1 μg/ml alone or in combination. Exponential phase cultures were prepared by diluting an overnight culture 1:50 or 1:1000 in YNB/G. After incubating the diluted cells 7 or 17 hrs. at 37° C., the exponential phase cells were diluted in YNB/G to A600 =0.0004 u/ml to obtain 3000 cfu/ml.
10 microliters (μl) of β-lactone compound or ketoconazole prepared in DMSO was added to 1 ml of diluted exponential phase cells. The tubes were incubated at 37° C. at 250 rpm for 27 hours. Periodically, aliquots were diluted in 0.9% saline and plated on Sabouraud dextrose agar plates to determine the number of cfu/ml.

F. oxysporium = assay: MIC against fungal panel, F. oxysporium
Method: (§1) First the MIC for the β-lactone compound and the MIC for the ketoconazole were determined against an array of organisms. Thereafter, the effects on the MIC of adding 0.031, 0.125, 0.5 and 2 μg/ml of ketoconazole were determined.

C. albicans (Y1750) = assay: MIC against fungal panel, C. albicans (Y1750)
Method: as §1

C. miyabeamis = assay: MIC against fungal panel, C. miyabeamis
Method: In a manner similar to that above described for effect against Candida albicans the synergistic effect of the combination of the β-lactone compound and ketoconazole against a fungal panel was determined by plating on potato dextrose agar.
as §1

C. neoformans = assay: MIC against fungal panel, C. neoformans
Method: as §1

C. albicans (Y1055) = assay: MIC against fungal panel, C. albicans (Y1055)
Method: as §1

Candida albicans MY 1055 [1] = assay: Minimum Fungicidal Concentration, plating of MIC tubes; details: MY1055, ≥95% reduction of viable cells, 37° C., 17 hours
Method: In the manner above described for the determination of minimum inhibitory concentration, broth dilution assay tubes were prepared ranging from 0.625 to 100 μg/ml and 1 milliliter of YNB/G inoculated with Candida albicans MY 1055 sterile test tubes. The tubes were incubated at 250 rpm at 37° C. for 17 hours. The minimum fungicidal concentration (MFC) was determined by serially diluting samples of MIC tubes in 0.9% saline. Aliquots were plated on Sabouraud dextrose agar. The plates were incubated at 37° for 48 hr. and the colonies counted. From the counts obtained, the number of cfu/ml in the undiluted drug-culture tube was calculated. The MFC is defined as the minimum amount of drug required to reduce the number of viable cells initially present in the drug-culture tubes greater than or equal to 95%. The MFC was 10 μg/ml.

Candida albicans MY 1055 [2] = assay: Minimum Inhibitory Concentration, broth dilution; details: MY1055, YNB/G, 37° C., 17 hr
Method: 11-(3-hydroxymethyl-4-oxo-2-oxetanyl)-7-methyl-2,4-undecadienoic acid (β-lactone compound), was solubilized in 100 percent dimethylsulfoxide (DMSO). Twofold dilutions were made with DMSO to obtain final drug concentrations in the broth dilution assay tubes ranging from 0.625 to 100 μg/ml.
The Candida albicans, MY 1055, yeast culture maintained in yeast nitrogen base/glucose (1/2 percent), YNB/G, was transferred to fresh medium and incubated 7 hours at 37° with shaking at 250 rpm. After incubation, each culture was diluted to A600 =0.0004 U/ml which was previously determined to be equal to 3000 cfu/ml (colony forming units per milliliter).
1 milliliter of YNB/G inoculated with yeast culture was added to sterile test tubes. The tubes were incubated at 250 rpm, 37° C. for 17 hr. The minimum inhibitory concentrations (MIC) was recorded as the lowest concentration of drug […].

A. niger = assay: MIC against fungal panel, A. niger
Method: as §1

Candida albicans MY 1055 [3] = assay: Effect of Azole Antifungals on the MIC'S of the β-Lactone Compound
From the text: The β-lactone compound and the following conazole compounds: cis-1-acetyl-4-[4-[[2-(2,4-dichlorophenyl)-2-1H-imidazole-1-ylmethyl)-1,3- dioxolan-4-yl]-methoxyl]phenyl]piperazine (ketoconazole), α-(2,4-difluorophenyl)-α-(1H-1,4-triazol-1-ylmethyl)1H-1,2-4-triazole-1-ethanol (fluconazole and cis-4-[4-[4-[4-[[2-(2,4-dichlorophenyl)-2-(1H-1,2,4-triazole-1-ylmethyl)-1,3-dioxolan-4-yl]-methoxy] phenyl]-1-piperazinyl]phenyl-2,4-dihydro-2-(1-methylpropyl)-3H-1,2,4-triazol-3-one (itraconazole), were dissolved in DMSO and serially diluted in the manner previously described.
Assay tubes were prepared in a manner similar to that previously described and in operations carried out in a manner similar to that previously described, the effect of various conazole compounds on the MIC of the β-lactone compound were determined.

U. zeae = assay: MIC against fungal panel, U. zeae
Method: as §1

Compound: CC(=CC(=O)O)C=C(C)CC(C)CCCCC1OC(=O)C1CO (stereo not drawn) [β-Lactone Compound]
- Fungal Growth (Candida albicans; Table 1, 2 hours, β-lactone 2.5 μg/ml): 3.85 × 10^3 CFU/ML
- Fungal Growth (Candida albicans; Table 1, 4.5 hours, β-lactone 2.5 μg/ml): 8.80 × 10^3 CFU/ML
- Fungal Growth (Candida albicans; Table 1, 7 hours, β-lactone 2.5 μg/ml): 1.12 × 10^4 CFU/ML
- Fungal Growth (Candida albicans; Table 1, 11 hours, β-lactone 2.5 μg/ml): 1.28 × 10^4 CFU/ML
- Fungal Growth (Candida albicans; Table 1, 17 hours, β-lactone 2.5 μg/ml): 9.35 × 10^3 CFU/ML
- Fungal Growth (Candida albicans; Table 1, 22 hours, β-lactone 2.5 μg/ml): 1.23 × 10^4 CFU/ML
- Fungal Growth (Candida albicans; Table 1, 27 hours, β-lactone 2.5 μg/ml): 1.80 × 10^4 CFU/ML
- Fungal Growth (Candida albicans; Table 2, 2 hours, β-lactone 10 μg/ml): 6.50 × 10^3 CFU/ML
- Fungal Growth (Candida albicans; Table 2, 4.5 hours, β-lactone 10 μg/ml): 7.50 × 10^3 CFU/ML
- Fungal Growth (Candida albicans; Table 2, 7 hours, β-lactone 10 μg/ml): 3.35 × 10^3 CFU/ML
- Fungal Growth (Candida albicans; Table 2, 11 hours, β-lactone 10 μg/ml): 8.70 × 10^2 CFU/ML
- Fungal Growth (Candida albicans; Table 2, 17 hours, β-lactone 10 μg/ml): 5.00 × 10^1 CFU/ML
- Fungal Growth (Candida albicans; Table 2, 22 hours, β-lactone 10 μg/ml): 6.50 × 10^1 CFU/ML
- Fungal Growth (Candida albicans; Table 2, 27 hours, β-lactone 10 μg/ml): 7.50 × 10^1 CFU/ML
- MIC, β-Lactone Compound in Presence of Ketoconazole (F. oxysporium; ketoconazole 0 μg/ml): > 50 µg/mL
- MIC, β-Lactone Compound in Presence of Ketoconazole (F. oxysporium; ketoconazole 0.031 μg/ml): > 50 µg/mL
- MIC, β-Lactone Compound in Presence of Ketoconazole (F. oxysporium; ketoconazole 0.123 μg/ml): > 50 µg/mL
- MIC, β-Lactone Compound in Presence of Ketoconazole (F. oxysporium; ketoconazole 0.5 μg/ml): > 50 µg/mL
- MIC, β-Lactone Compound in Presence of Ketoconazole (F. oxysporium; ketoconazole 2 μg/ml): > 50 µg/mL
- MIC, β-Lactone Compound in Presence of Ketoconazole (C. albicans (Y1750); ketoconazole 0 μg/ml): 3.125 µg/mL
- MIC, β-Lactone Compound in Presence of Ketoconazole (C. albicans (Y1750); ketoconazole 0.031 μg/ml): 0.78 µg/mL
- MIC, β-Lactone Compound in Presence of Ketoconazole (C. albicans (Y1750); ketoconazole 0.123 μg/ml): 0.195 µg/mL
- MIC, β-Lactone Compound in Presence of Ketoconazole (C. albicans (Y1750); ketoconazole 0.5 μg/ml): 0.19 µg/mL
- MIC, β-Lactone Compound in Presence of Ketoconazole (C. albicans (Y1750); ketoconazole 2 μg/ml): 0.19 µg/mL
- MIC, β-Lactone Compound in Presence of Ketoconazole (C. miyabeamis; ketoconazole 0 μg/ml): 0.78 µg/mL
- MIC, β-Lactone Compound in Presence of Ketoconazole (C. miyabeamis; ketoconazole 0.031 μg/ml): 0.39 µg/mL
- MIC, β-Lactone Compound in Presence of Ketoconazole (C. miyabeamis; ketoconazole 0.123 μg/ml): 0.78 µg/mL
- MIC, β-Lactone Compound in Presence of Ketoconazole (C. miyabeamis; ketoconazole 2 μg/ml): N.G.
- MIC, β-Lactone Compound in Presence of Ketoconazole (C. neoformans; ketoconazole 0 μg/ml): 12.5 µg/mL
- MIC, β-Lactone Compound in Presence of Ketoconazole (C. neoformans; ketoconazole 0.031 μg/ml): 12.5 µg/mL
- MIC, β-Lactone Compound in Presence of Ketoconazole (C. neoformans; ketoconazole 0.123 μg/ml): 3.125 µg/mL
- MIC, β-Lactone Compound in Presence of Ketoconazole (C. neoformans; ketoconazole 0.5 μg/ml): 0.19 µg/mL
- MIC, β-Lactone Compound in Presence of Ketoconazole (C. neoformans; ketoconazole 2 μg/ml): 0.19 µg/mL
- MIC, β-Lactone Compound in Presence of Ketoconazole (C. albicans (Y1055); ketoconazole 0 μg/ml): 3.125 µg/mL
- MIC, β-Lactone Compound in Presence of Ketoconazole (C. albicans (Y1055); ketoconazole 0.031 μg/ml): 0.78 µg/mL
- MIC, β-Lactone Compound in Presence of Ketoconazole (C. albicans (Y1055); ketoconazole 0.123 μg/ml): 0.78 µg/mL
- MIC, β-Lactone Compound in Presence of Ketoconazole (C. albicans (Y1055); ketoconazole 0.5 μg/ml): 0.19 µg/mL
- MIC, β-Lactone Compound in Presence of Ketoconazole (C. albicans (Y1055); ketoconazole 2 μg/ml): 0.19 µg/mL
- MFC (Candida albicans MY 1055 [1]): 10 µg/mL (≈ 30.8 µM)
- MIC (Candida albicans MY 1055 [2]): 2.5 µg/mL (≈ 7.71 µM)
- MIC, β-Lactone Compound in Presence of Ketoconazole (A. niger; ketoconazole 0 μg/ml): > 50 µg/mL
- MIC, β-Lactone Compound in Presence of Ketoconazole (A. niger; ketoconazole 0.031 μg/ml): > 50 µg/mL
- MIC, β-Lactone Compound in Presence of Ketoconazole (A. niger; ketoconazole 0.123 μg/ml): > 50 µg/mL
- MIC, β-Lactone Compound in Presence of Ketoconazole (A. niger; ketoconazole 0.5 μg/ml): > 50 µg/mL
- MIC, β-Lactone Compound in Presence of Ketoconazole (A. niger; ketoconazole 2 μg/ml): > 50 µg/mL
- MIC of β-lactone compound (Candida albicans MY 1055 [3]; fluconazole 0 μg/ml): 2.5 µg/mL
- MIC of β-lactone compound (Candida albicans MY 1055 [3]; itraconazole 0 μg/ml): 2.5 µg/mL
- MIC of β-lactone compound (Candida albicans MY 1055 [3]; ketoconazole 0 μg/ml): 2.5 µg/mL
- MIC of β-lactone compound (Candida albicans MY 1055 [3]; with fluconazole 0.3125 μg/ml): 1.25 µg/mL
- MIC of β-lactone compound (Candida albicans MY 1055 [3]; with fluconazole 1.25 μg/ml): 0.625 µg/mL
- MIC of β-lactone compound (Candida albicans MY 1055 [3]; with fluconazole 5.0 μg/ml): 0.625 µg/mL
- MIC of β-lactone compound (Candida albicans MY 1055 [3]; with itraconazole 0.3125 μg/ml): 2.5 µg/mL
- MIC of β-lactone compound (Candida albicans MY 1055 [3]; with itraconazole 1.25 μg/ml): 1.25 µg/mL
- MIC of β-lactone compound (Candida albicans MY 1055 [3]; with itraconazole 5.0 μg/ml): 1.25 µg/mL
- MIC of β-lactone compound (Candida albicans MY 1055 [3]; with ketoconazole 0.3125 μg/ml): 0.625 µg/mL
- MIC of β-lactone compound (Candida albicans MY 1055 [3]; with ketoconazole 1.25 μg/ml): 0.625 µg/mL
- MIC of β-lactone compound (Candida albicans MY 1055 [3]; with ketoconazole 5.0 μg/ml): 0.625 µg/mL
- MIC, β-Lactone Compound in Presence of Ketoconazole (U. zeae; ketoconazole 0 μg/ml): 3.125 µg/mL
- MIC, β-Lactone Compound in Presence of Ketoconazole (U. zeae; ketoconazole 0.031 μg/ml): 3.125 µg/mL
- MIC, β-Lactone Compound in Presence of Ketoconazole (U. zeae; ketoconazole 0.123 μg/ml): 0.78 µg/mL
- MIC, β-Lactone Compound in Presence of Ketoconazole (U. zeae; ketoconazole 0.5 μg/ml): 0.19 µg/mL
- MIC, β-Lactone Compound in Presence of Ketoconazole (U. zeae; ketoconazole 2 μg/ml): 0.19 µg/mL
